Consider one compound from article PMC12474915 (Nature Communications, 2025).

For this experiment, the target named is T1, MET1MTase (Arabidopsis thaliana, UniProt P34881).
T1 construct: gene DMT1; residues 621-1534 (lacks RFTS1-2; acidic linker, BAH1-2, MTase), GST tag cleaved by HRV3C, E. coli Rosetta2 (DE3)
T1 sequence (P34881 621-1534): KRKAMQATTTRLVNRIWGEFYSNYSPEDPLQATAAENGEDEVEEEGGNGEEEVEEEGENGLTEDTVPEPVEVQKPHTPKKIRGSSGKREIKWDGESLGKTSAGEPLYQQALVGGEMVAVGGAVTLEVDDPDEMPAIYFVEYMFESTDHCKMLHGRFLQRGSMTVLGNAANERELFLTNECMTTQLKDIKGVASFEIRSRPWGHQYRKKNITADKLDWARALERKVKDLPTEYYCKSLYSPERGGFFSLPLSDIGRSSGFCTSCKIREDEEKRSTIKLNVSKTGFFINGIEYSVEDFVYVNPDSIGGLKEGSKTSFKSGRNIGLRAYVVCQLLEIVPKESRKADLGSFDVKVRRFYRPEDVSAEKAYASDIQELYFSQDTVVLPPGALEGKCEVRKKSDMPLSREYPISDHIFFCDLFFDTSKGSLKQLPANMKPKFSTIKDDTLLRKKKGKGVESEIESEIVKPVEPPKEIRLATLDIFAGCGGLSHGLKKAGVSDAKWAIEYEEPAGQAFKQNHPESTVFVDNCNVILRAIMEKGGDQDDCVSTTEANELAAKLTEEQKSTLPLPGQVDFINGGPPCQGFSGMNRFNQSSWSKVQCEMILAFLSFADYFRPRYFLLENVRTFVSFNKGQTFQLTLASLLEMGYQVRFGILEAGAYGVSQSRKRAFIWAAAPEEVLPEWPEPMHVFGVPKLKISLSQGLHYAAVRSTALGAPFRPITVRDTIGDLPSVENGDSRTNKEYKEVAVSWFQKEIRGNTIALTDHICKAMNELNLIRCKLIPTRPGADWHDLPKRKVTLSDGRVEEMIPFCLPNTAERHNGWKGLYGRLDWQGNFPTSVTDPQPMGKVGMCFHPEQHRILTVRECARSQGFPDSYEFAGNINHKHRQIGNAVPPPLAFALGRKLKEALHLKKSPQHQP
As to the kind of experiment: cryo-EM structure. The experiment is classed as binding. The conditions noted are these: ternary complex with 12 bp hemimethylated DNA (5-fluorocytosine covalently bound to Cys1198); formed from added SAM; 2.74 Å.

Turning to `Nc1ncnc2c1ncn2[C@@H]1O[C@H](CSCC[C@H](N)C(=O)O)[C@@H](O)[C@H]1O` [SAH, S-adenosyl homocysteine], the cryo-EM structure result is listed as “catalytic core containing S-adenosyl homocysteine (SAH, a methyl donor cofactor product) binding site”.
